These results are taken from US20040024055A1, “Pharmaceutical composition containing the exract of saururus chinensis baill useful as an anticancer agent and a process for the preparation thereof” (priority 2000, published 2004).

Series [1] deals with cell line treated as in Experimental Example 1. Description: LDH analysis of remaining cell after NO detection. In kind it is cell-based. Conditions: 1% Triton treatment.
Description: The remaining cell after NO detection was identified as dead by measuring existence rate and necrosis rate through MTT analysis and LDH analysis.
Series [2] deals with SK-Hep-1 liver cancer cell line. Description: MTT analysis, anticancer activity. Type of series: cell-based, human. Conditions: 48 hr.
Protocol: (§1) To be specific, SK-Hep-1 cell, which is liver cancer cell line, was added to 96-well microplate (Falcon, USA) with the concentration of 3×10^5 cells/ml by 100 μl per well. Each extracted and separated substance dissolved in DMSO was added to the well by 100 μl for the final concentration to be from 50 μg/ml to 0.0244 μg/ml, with 200 μl of final volume. Each cell was cultured for 48 hr in a culture medium of 37° C. and 5% CO2. After cultivation, 20 μl of phosphate buffer solution containing 5 mg/ml of MTT (3-[4,5-dimethylthiazol-2-yl]-2,5-diphenyltetrazoliumbromide, Sigma Co.) reagent was added to each well, and then cultured for 4 hr. After taking 100 μl of supernant from each culture medium, 100 μl of 0.04N hydrochloric acid-isopropanol was added. After letting alone overnight, absorbance was measured at 560 nm using automatic Eliza detector (Molecular Divices Corp., USA). Anticancer activity of each extracted and separated substance was calculated from the absorbance value by Equation 1 and was expressed in terms of cell.
(§2) Average Existence Rate(%)=(Absorbance of Treated Group)/(Absorbance of Control Group)×100
In series [3] the test system is PC-3 prostate cancer cell line. Description: MTT analysis, anticancer activity. Type of series: cell-based, human. Conditions: 48 hr.
Protocol: as §1, §2
The test system of series [4] is DU-145 prostate cancer cell line. Kind of series: MTT analysis, anticancer activity. Type of series: cell-based, human. Conditions: 48 hr.
Protocol: as §1, §2
The subject of the next series is BT-20. Description: MTT analysis, anticancer activity. Conditions: 48 hr. Type of series: cell-based, human.
The test system of the next series is BT-549. Kind of series: MTT analysis, anticancer activity. In kind it is cell-based, human. Conditions: 10 μg/ml sample.
A further series has as its system HS-578T. Description: MTT analysis, anticancer activity. Conditions: 10 μg/ml sample. Type of series: cell-based, human.
The next series has as its system MCF-7. Kind of series: MTT analysis, anticancer activity. Type of series: cell-based, human. Conditions: MTT, 48 hr.
Another series has as its system SK-BR-3. Description: MTT analysis, anticancer activity. In kind it is cell-based, human. Conditions: 48 hr.
A further series deals with T-47D. Description: MTT analysis, anticancer activity. Conditions: 48 hr. Type of series: cell-based, human.
The next series concerns HeLa. Description: MTT analysis, anticancer activity. Conditions: 48 hr. Type of series: cell-based, human.
For another series, the system named is ME-180. Description: MTT analysis, anticancer activity. In kind it is cell-based, human. Conditions: 10 μg/ml sample.
A further series relates to HT-29. Kind of series: MTT analysis, anticancer activity. In kind it is cell-based, human. Conditions: 10 μg/ml sample.
For the next series, the system named is LoVo. Kind of series: MTT analysis, anticancer activity. In kind it is cell-based, human. Conditions: 10 μg/ml sample.
The subject of the next series is SK-N-SH. Description: MTT analysis, anticancer activity. Conditions: 48 hr. In kind it is cell-based, human.
In a further series the test system is T98G. Kind of series: MTT analysis, anticancer activity. In kind it is cell-based, human. Conditions: 48 hr.
For a further series, the system named is HS-746T. Description: MTT analysis, anticancer activity. Type of series: cell-based, human. Conditions: 10 μg/ml sample.
The subject of another series is KATO-III. Description: MTT analysis, anticancer activity. Conditions: MTT, 48 hr. In kind it is cell-based, human.
Another series concerns A431. Kind of series: MTT analysis, anticancer activity. Type of series: cell-based, human. Conditions: 48 hr.
For the next series, the system named is Hep-2. Kind of series: MTT analysis, anticancer activity. Type of series: cell-based, human. Conditions: MTT, 48 hr.
The subject of a further series is HT1080. Kind of series: MTT analysis, anticancer activity. Type of series: cell-based, human. Conditions: 48 hr.
The test system of a further series is NCI-H69. Kind of series: MTT analysis, anticancer activity. Conditions: 10 μg/ml sample. Type of series: cell-based, human.
The next series has as its system SK-MEL-28. Kind of series: MTT analysis, anticancer activity. In kind it is cell-based, human. Conditions: 48 hr.
Another series deals with SK-OV-3. Kind of series: MTT analysis, anticancer activity. Type of series: cell-based, human. Conditions: 10 μg/ml sample.
The next series relates to HS683. Description: MTT analysis, anticancer activity. Type of series: cell-based, human. Conditions: 48 hr.
The subject of another series is 293. Kind of series: MTT analysis, cytotoxicity against normal cell line. In kind it is cell-based, human. Conditions: 10 μg/ml sample.
For the next series, the system named is 3T3-L1. The series is described as above. Conditions: 10 μg/ml sample. Type of series: cell-based, mouse.
In another series the test system is CHO. The series is described as above. In kind it is cell-based, Chinese hamster. Conditions: 10 μg/ml sample.
For another series, the system named is CPAE. The description is as above. In kind it is cell-based, bovine. Conditions: 10 μg/ml sample.
Another series concerns HS27. The series is described as above. In kind it is cell-based, human. Conditions: 10 μg/ml sample.
Another series has as its system NIH-3T3. The series is described as above. Type of series: cell-based, mouse. Conditions: 10 μg/ml sample.
A further series can be described thus: Solubility. In kind it is physicochemical.
The test system of series [5] is mouse. Conditions: intraperitoneal, Rao et al.; cited from earlier work.
Series [6] deals with mouse. Conditions: reported by Rao et al.; cited from earlier work.
The nature of series [7]: Anticancer activity of sauristolactam separated from saururus. Conditions: separated from saururus and crystallized.

In brackets after ≈: the same amount, converted by molar mass.

Regarding Triton X-100, in [1], the “LDH Analysis (necrosis rate)” value is 100%.
For the compound `COc1ccc(C(O)C(C)Oc2ccc(C3OC(c4ccc(OC(C)[C@@H](O)c5ccc(OC)c(OC)c5)c(OC)c4)C(C)C3C)cc2OC)cc1OC` (single isomer, unassigned) [HNP-98701C, manassantin A], the “IC50 SK-Hep-1” value in series [2] stood at 0.0560 µg/mL (≈ 0.0764 µM). The “IC50 PC-3” value in series [3] is 0.0446 µg/mL (≈ 0.0609 µM). Moreover, the “IC50 DU-145” value in series [4] worked out at 0.0263 µg/mL (≈ 0.0359 µM). Further, in the series with BT-20, the “IC50 BT-20” value turned out to be 0.0629 µg/mL (≈ 0.0858 µM). Also, the “Existence rate class, BT-549 (in IC50 table)” value with BT-549 was “* (Existence rate larger than 60% for 10 μg/ml sample)”. In addition, the “Existence rate class, HS-578T (in IC50 table)” value in the series with HS-578T is listed as “N.E. (Not effective; existence rate larger than 90% for 10 μg/ml sample)”. Moreover, the “IC50 MCF-7” value with MCF-7 is more than 10 µg/mL. Further, the “IC50 SK-BR-3” value in the series with SK-BR-3 is 0.0632 µg/mL (≈ 0.0862 µM). For the same compound, in the series on T-47D, the “IC50 T-47D” value was found to be 0.1249 µg/mL (≈ 0.17 µM). Besides, in the series on HeLa, the “IC50 HeLa” value is 0.1838 µg/mL (≈ 0.251 µM). Also, in the series with ME-180, the “Existence rate class, ME-180 (in IC50 table)” value was “* (Existence rate larger than 60% for 10 μg/ml sample)”. Moreover, the “Existence rate class, HT-29 (in IC50 table)” value in the series on HT-29 is reported as “* (Existence rate larger than 60% for 10 μg/ml sample)”. The “Existence rate class, LoVo (in IC50 table)” value with LoVo is “* (Existence rate larger than 60% for 10 μg/ml sample)”. For the same compound, in the series with SK-N-SH, the “IC50 SK-N-SH” value amounted to 0.5392 µg/mL (≈ 0.736 µM). Moreover, the “IC50 T98G” value in the series on T98G turned out to be 0.1014 µg/mL (≈ 0.138 µM). Besides, the “Existence rate class, HS-746T (in IC50 table)” value in the series with HS-746T was “* (Existence rate larger than 60% for 10 μg/ml sample)”. The “IC50 KATO-III” value in the series with KATO-III turned out to be 0.7005 µg/mL (≈ 0.956 µM). The “IC50 A431” value in the series with A431 worked out at 0.3860 µg/mL (≈ 0.527 µM). For the same compound, the “IC50 Hep-2” value with Hep-2 was found to be 0.0367 µg/mL (≈ 0.0501 µM). In the series on HT1080, the “IC50 HT1080” value was 0.1753 µg/mL (≈ 0.239 µM). Further, in the series on NCI-H69, the “Existence rate class, NCI-H69 (in IC50 table)” value is recorded as “* (Existence rate larger than 60% for 10 μg/ml sample)”. Besides, the “IC50 SK-MEL-28” value in the series with SK-MEL-28 amounted to 0.0725 µg/mL (≈ 0.0989 µM). Further, in the series on SK-OV-3, the “Existence rate class, SK-OV-3 (in IC50 table)” value is reported as “N.E. (Not effective; existence rate larger than 90% for 10 μg/ml sample)”. The “IC50 HS683” value in the series on HS683 was 0.2170 µg/mL (≈ 0.296 µM). Besides, the “Existence rate class, 293 (in IC50 table)” value with 293 is “* (Existence rate larger than 60% for 10 μg/ml sample)”. For the same compound, the “Existence rate class, 3T3-L1 (in IC50 table)” value in the series on 3T3-L1 was “N.E. (Not effective; existence rate larger than 90% for 10 μg/ml sample)”. In the series on CHO, the “Existence rate class, CHO (in IC50 table)” value is “* (Existence rate larger than 60% for 10 μg/ml sample)”. Besides, the “Existence rate class, CPAE (in IC50 table)” value in the series with CPAE was “* (Existence rate larger than 60% for 10 μg/ml sample)”. In the series on HS27, the “Existence rate class, HS27 (in IC50 table)” value was “N.E. (Not effective; existence rate larger than 90% for 10 μg/ml sample)”. Besides, the “Existence rate class, NIH-3T3 (in IC50 table)” value in the series with NIH-3T3 is on record as “N.E. (Not effective; existence rate larger than 90% for 10 μg/ml sample)”. In addition, in “Solubility”, the “Solubility in methanol, ethanol, ethyl acetate, chloroform and dimethylsulfoxide (DMSO)” value was “highly soluble”; the “Solubility in water, acetone, ether and hexane” value is listed as “insoluble”. In the series on mouse [5], the “spontaneous movement 50% reduction concentration (IC50)” value is 0.21 ± 0.02 mg/kg. Further, the “50% lethal dose (LD50)” value with mouse [6] is on record as 5.2 mg/kg.
In the case of `COc1c(O)cc2c3c(cc4ccccc4c13)N(C)C2=O` [sauristolactam], the anticancer activity entry in series [7] is “no anticancer activity was detected”.
